Key:
[1] = tested on: mouse skin cyclic-AMP phosphodiesterase; assay: mouse skin phosphodiesterase (PDE) inhibition test; type: biochemical; settings: for phosphodiesterase activity, % of control: reference level used as activity criterion; for Mouse Skin Phosphodiesterase: test compound 10 ug./ml, active if it inhibits more than theophylline (to 50% of control at 1 mM or to 80% of control at 0.05 mM)
Source text: The novel compounds of the present invention are active in inhibiting the enzyme cyclic-AMP phosphodiesterase which is responsible for the metabolism of cyclic adenosine monophosphate which is usually simply referred to as cyclic AMP. As such, they are useful in the treatment of psoriasis, a disease in which the epidermal cyclic AMP levels are reported to be decreased. Also as such, they are useful in the treatment of asthma, since elevated levels of cyclic AMP in most cells are reported to inhibit the release of histamine and other mediators and since elevated levels of cyclic AMP in bronchial smooth muscle are reported to cause bronchodilation. See Ann. Reports in Medicinal Chem., Vol. 10, 197 (1975).
The inhibition of phosphodiesterase is determined by the mouse skin phosphodiesterase (PDE) inhibition test as follows:
Hairless mice (Jackson Laboratories), 3-4 months old are killed by cervical dislocation and their skins removed. Epidermal slices are taken at a thickness of 0.2 mm. The slices are weighed and homogenized at 100 mg./ml. in ice-cold tris-HCl buffer (0.04M, pH 8, containing 0.005M MgCl2). Homogenates are centrifuged at 17,000 × gravity for 30 minutes. The supernatants are divided into aliquots which are stored at -20° C. Dilutions of the PDE are made with tris-HCl buffer just prior to use.
AG1-X2®, 200-400 mesh (a polystyrene anionic exchange resin 8% cross linked from Bio-Rad Lab.) is washed with 0.5N HCl, 0.5N NaOH, 0.5N HCl and repeatedly with double distilled water to pH 5. The resin is allowed to settle and 2 volumes of water are added to one volume of settled resin.
^3 H-Cyclic AMP (21 c/m mole, Schwarz-Mann Inc.) is purified by addition of 0.1 to 0.2 ml. of stock (in 50% ethanol) to 5 ml. of anion exchange resin and 0.4 ml. of tris-HCl buffer. The mixture is vortexed, centrifuged at 1200 × gravity for 5 minutes and the supernatant is discarded. The resin is washed in the same manner eight more times with two volumes of tris-HCl buffer. Resin bound ^3 H-cyclic AMP is eluted by two successive washings with 4 ml. of 0.025N HCl (resin pH = 2.0). After centrifugation, the pooled acid washes containing ^3 H-cyclic AMP are aliquoted and lyophilized. The material is stored dry at -20° C. and reconstituted with tris-HCl buffer just prior to use with a volume sufficient to give approximately 200,000 CPM/0.1 ml.
PDE activity is measured by the method of W. J. Thompson and N. N. Appleman, Biochemistry 10, 311 (1971). Assays are conducted in 12 × 75 mm. polypropylene test tubes. The reaction mixture consists of ^3 H-cyclic AMP (200,000 CPM), unlabeled cyclic AMP, PDE (100 ug. protein) and test compounds which are prepared by dissolving the compounds in methanol at a concentration of 10 mg./ml. and then dilution of tris-HCl buffer. Final concentration of the test compounds in the incubation mixture is 10 ug./ml. The total volume of the incubation mixture is increased to 0.4 ml. with tris-HCl buffer containing 3.75 millimoles of 2-mercaptoethanol. The enzyme is incubated for 10 minutes at room temperature in the presence of the test compounds or buffer prior to the addition of the mixture of ^3 H-cyclic AMP and unlabeled cyclic AMP. Reactions are run at 30° C. for 15 minutes and then terminated by immersing in acetone-dry ice until frozen, followed by boiling for 3 minutes. […]

[2] = tested on: mouse passive cutaneous anaphylaxis (IgE and IgG lesions); assay: mouse passive cutaneous anaphylaxis (PCA) test; type: in vivo; settings: 50 mg./kg intraperitoneally at -1 hour; active if IgE or IgG lesion area significantly smaller than control
Description: Anti-asthma activity was determined by the mouse passive cutaneous anaphylaxis (PCA) test as follows.
Female mice (Charles River Breeding Labs.), weighing 20-22 gm. are inoculated intraperitoneally at approximately three weeks of age with 0.5 ml. of Timothy pollen antigen in complete Freund's adjuvant. The sensitizing antigen is prepared by suspending 60 mg. of Timothy antigen (Phleum pratense) in 6 ml. of Freund's Complete Adjuvant (Difco Labs.). Approximately 3-5 weeks after inoculation, ascitic fluid is removed from responding mice and tested for IgE and IgG type antibody by mouse PCA as follows:
Samples of ascitic fluid are diluted 1:10 and 50 μl are injected intradermally into five mice. The mice are challenged intravenously with antigen and Evans blue dye 48 hours later. Fifteen minutes after challenge, the dorsal skin is removed and examined for blue spots. […]
At -50 hour (relative to antigen challenge at 0 hour) 50 μl of IgE is injected intradermally on the left side of a 25 gm. female mouse, posterior to the axilla at the level of the diaphragm. […] Challenge and reading are performed in serial order so that reading of the assay is essentially blind. […] The largest and smallest diameters of the lesion and a qualitative estimate of intensity of color are recorded. […] IgE and IgG lesions are analyzed independently. […]

| Mouse Skin Phosphodiesterase [1] | SMILES | phosphodiesterase activity, % of control ([1]; 0.05 mM concentration) | phosphodiesterase activity, % of control ([1]; 1 mM concentration) | MOUSE PCA TEST [2] |
| --- | --- | --- | --- | --- |
|  | Cn1c(=O)c2[nH]cnc2n(C)c1=O [theophylline, reference compound] | 80 % of control | 50 % of control |  |
| Active | CSc1nncc2nccn12 [5-(Methylthio)-imidazo[1,2-d]-as-triazine] |  |  |  |
| Active | c1coc(CNc2nncc3nccn23)c1 [5-(Furfurylamino)-imidazo[1,2-d]-as-triazine] |  |  |  |

| SMILES | Mouse Skin Phosphodiesterase [1] | phosphodiesterase activity, % of control ([1]; 0.05 mM concentration) | phosphodiesterase activity, % of control ([1]; 1 mM concentration) | MOUSE PCA TEST [2] |
| --- | --- | --- | --- | --- |
| CN1CCN(c2nncc3nccn23)CC1 [5-(4-Methyl-1-piperazinyl)-imidazo[1,2-d]-as-triazine] | Active |  |  | Accept |

Source: patent US4107309A, “Substituted imidazo[1,2-d]-as-triazines” (American Cyanamid Company, priority 1977, dated 1978)
